Experimental data published in patent publication US7282484B2, “Anti-tumor agents” (Point Therapeutics, Inc., priority 1999, dated 2007).
Several values for one entry are separate records, joined by “and”; a condition that tells them apart may be missing. Identical values can stand only once.

Columns and labels:
[1] = test system: DPPIV-like activity of FAP-α+ CD26− primary human stromal cells; test: DPPIV-like activity assay on FAP-α+ CD26− primary human stromal cells; assay type: cell-based; settings: human stromal cells lacking CD26 but expressing FAP-α, 2 days incubation
Protocol: DPPIV-like activity assay. Following the removal of supernatant from the stromal cultures, the adherent cells were washed with D-PBS and assayed for DPPIV-like activity. The fluorogenic substrate Ala-Pro-AFC was diluted in DPPIV buffer (50 mM Hepes, 140 mM NaCl) from the original stock of 10 mM (stored at −20° C. as a solution in dimethyl-formamide) to 1 mM, directly before the assay. 30 μl of the 1 mM stock was added per ml of buffer and the stromal cells were incubated for 10 minutes with 1 ml per well of the diluted substrate. The reaction was stopped by removing the substrate solution from each well and measured in the fluorescence spectrophotometer or stored −20° C. Activity was measured using an excitation wavelength of 400 nm and emission wavelength of 505 nm.
(§1) Cell source. Bone marrow was kindly donated by New England Medical Center, Boston, Mass. and Dr. Richard Benjamin from Brigham and Women's Hospital in Boston, Mass. Mononuclear cells were purified over Ficoll and used immediately or frozen in liquid nitrogen.
Establishment of human stromal feeder layer. 2 to 4×10^7 human bone marrow mononuclear cells were seeded into a T75 flask (Corning) containing 20 mls of LTC medium and incubated. at 37° C. in 100% humidified 5% CO2 in air. After 1 week half the medium was exchanged for fresh medium and incubated for approximately 1 week when a confluent cell layer formed. […]

[2] = test system: FAP-α+ CD26− primary human stromal cells; test: G-CSF release from FAP-α+ CD26− primary human stromal cells (ELISA); assay type: cell-based; settings: human bone marrow cells lacking CD26 but expressing FAP-α, 2 days incubation
Protocol: as §1
Establishment of human stromal feeder layer. 2 to 4×10^7 human bone marrow mononuclear cells were seeded into a T75 flask (Corning) containing 20 mls of LTC medium and incubated. at 37° C. in 100% humidified 5% CO2 in air. After 1 week half the medium was exchanged for fresh medium and incubated for approximately 1 week when a confluent cell layer formed.
ELISA of human cells. Cultured supernatants were assayed for a high sensitivity ELISA (R+D Systems).
PT-100 incubation, supernatant collection and DPPIV-like activity assay for human and rat cells were carried out in an identical manner.
The DPPIV-like activity associated with the intact cells was inhibited by-PT-100. Stromal cells were established from the bone marrow of a human volunteer as described in the materials and methods. The stromal cells were incubated for 2 days in the presence or absence of the indicated concentrations of PT-100 and cultured supernatants were assayed for IL-6 or DPPIV-like activity as described in Materials and Methods.

B16-F0 tumor = test: Established subcutaneous B16 melanoma in C57BL/6 mice; assay type: in vivo, mouse
Protocol: The highly metastic B16-F0 tumor was implanted subcutaneously (s.c.) in C57BL/6 mice. PT-100 administration was started on day 8 when palpable tumors were apparent. Tumor volumes were measured on days 8, 12, and 15. […] In the experiment of FIG. 4 each experimental group contained 10 animals.

[3] = test system: DPPIV-like activity of Fischer D+ and D− rat BM stromal cells; test: DPPIV-like activity assay on rat bone marrow stromal cells; assay type: cell-based
Protocol: (§2) Cell Source. 8-12 week old female wild type CD26 positive (D^+) and CD26 negative (D^−) Fischer rat (Charles River Labs, Japan) bone marrow.
(§3) Bone marrow preparation. Bone marrow was flushed from each femur, tibia and fibula with Dulbecco's phosphate buffered saline (D-PBS) using a 21-gauge needle and a 10 ml syringe. After removal, the bone marrow was immediately aspirated through the needle to make a single cell suspension. The cells were washed twice with sterile PBS and resuspended in MyeloCult H5100 long-term culture (LTC) media, available from Stem Cell Technologies, and supplemented with freshly diluted 10^−6 M hydrocortisone, available from Sigma.
Establishment of adherent bone marrow stromal cell cultures. […]
DPPIV-like activity assay. […] The reaction was stopped by removing the substrate solution from each well and measured in the fluorescence spectrophotometer or stored −20° C. Activity was measured using an excitation wavelength of 400 nm and emission wavelength of 505 nm.
Bone marrow stromal cells were established from the long bones of Fischer D^+ and D^− rats and cultured for 2 days in the presence or absence of PT-100. […] DPPIV-like activity is presented as velocity and the percent of protease activity inhibition with PT-100 is calculated relative to a ‘no treatment’ control.

[4] = test system: Fischer D+ and D− rat bone marrow stromal cells; test: IL-6 release from rat bone marrow stromal cells (ELISA); assay type: cell-based; settings: 2 days incubation
Protocol: as §2, §3
Establishment of adherent bone marrow stromal cell cultures. 1-2×10^7 cells were seeded into a T25 flask (Coming) containing 10 mls of LTC medium and incubated at 37° C. in 100% humidified 5% CO2 in air. After 1 week half the medium was exchanged for fresh medium and incubated for approximately 1 week until a confluent cell layer formed. PT-100 incubation. The adherent stromal cells were removed from the flask by trypsin-EDTA (Life Technologies, Inc.) digestion, washed once with sterile PBS and resuspended in long term culture medium at 1×10^5/ml. […]
Similar levels of IL-6 are secreted from bone marrow stromal cells of D^+ and D^− rats. […] IL-6 levels in the culture supernatant were determined by ELISA.

WEHI-164 fibrosarcoma = test: Subcutaneous WEHI-164 fibrosarcoma in mice; assay type: in vivo, mouse
Protocol: Thus in the experiment of FIG. 5, the large reductions in tumor volume recorded were in part due to the absence of a palpable tumor in some of the mice:in each of the PT-100 treated groups (10 replicate animals per group). For example, in the mice treated with the 5 μg dose of PT-100 administered b.i.d., 6 of the animals were completely free of a detectable s.c. tumor. PT-100 treatment of the mice in the experimental groups was stopped on day 20, the day when the data of FIG. 5 were recorded.

[5] = administration started on day 2 after implantation

CC(C)[C@H](N)C(=O)N1CCC[C@H]1B(O)O [PT-100, valine-proline-boronic acid]
Inhibition of DPPIV-like activity associated with the intact cells [1]: inhibited | G-CSF release [2]: potently stimulated | Tumor growth (B16-F0 tumor; 160 μg administered for two days, day 8 and day 9): effective in suppressing tumor growth | Tumor growth compared with saline treated control mice (B16-F0 tumor; 10 and 40 μg p.o. b.i.d. from day 8 to 14, tumor volumes days 8, 12, 15): markedly inhibited | Growth of B16 melanoma (B16-F0 tumor; administered orally, mice): significantly inhibits | % Inhibition by 10^−6 M PT-100 of DPPIV-like activity ([3]; Fischer D− (CD26 negative) rat BM stromal cells, 2 days culture, 10^−6 M, relative to no treatment control): 86.4% and 73.8% and 62.1% | Inhibition of DPPIV-like activity (in words) ([3]; rat bone marrow stromal cells which lack CD26): potently inhibited | IL-6 levels in culture supernatant [4]: enhanced | Animals completely free of a detectable s.c. tumor (WEHI-164 fibrosarcoma; 5 μg b.i.d., started day 2, recorded day 20, 10 animals per group): 6 animals | Growth of WEHI-164 fibrosarcoma (WEHI-164 fibrosarcoma; administered orally, mice): significantly inhibits | Tumor growth (WEHI-164 fibrosarcoma; [5]): tumor growth inhibited | Tumor necrosis and regression (WEHI-164 fibrosarcoma; [5]): a proportion of the tumors also became necrotic and apparently regressed completely | Growth of an established s.c. tumor (WEHI-164 fibrosarcoma; established s.c. WEHI-164 tumor): could suppress the growth | Tumor recurrence in mice recorded as tumor-free on day 20 (WEHI-164 fibrosarcoma; treatment stopped on day 20, monitored up to day 30 after implantation): none of the mice recorded as tumor-free on day 20 has developed a detectable s.c. tumor
